Data on three molecules can be found in patent publication US10023541B2, “Urea compounds and their use as enzyme inhibitors” (BIAL-PORTELA & CA, S.A., priority 2012, dated 2018).

The target in series [1] is T1, FAAH (Mus musculus, UniProt O08914).
T1 construct: A fragment of liver, left lung lobe and brain without cerebellum were removed; from tissue; host or cells: mouse brain, liver and lung homogenates
T1 sequence (O08914 1-579): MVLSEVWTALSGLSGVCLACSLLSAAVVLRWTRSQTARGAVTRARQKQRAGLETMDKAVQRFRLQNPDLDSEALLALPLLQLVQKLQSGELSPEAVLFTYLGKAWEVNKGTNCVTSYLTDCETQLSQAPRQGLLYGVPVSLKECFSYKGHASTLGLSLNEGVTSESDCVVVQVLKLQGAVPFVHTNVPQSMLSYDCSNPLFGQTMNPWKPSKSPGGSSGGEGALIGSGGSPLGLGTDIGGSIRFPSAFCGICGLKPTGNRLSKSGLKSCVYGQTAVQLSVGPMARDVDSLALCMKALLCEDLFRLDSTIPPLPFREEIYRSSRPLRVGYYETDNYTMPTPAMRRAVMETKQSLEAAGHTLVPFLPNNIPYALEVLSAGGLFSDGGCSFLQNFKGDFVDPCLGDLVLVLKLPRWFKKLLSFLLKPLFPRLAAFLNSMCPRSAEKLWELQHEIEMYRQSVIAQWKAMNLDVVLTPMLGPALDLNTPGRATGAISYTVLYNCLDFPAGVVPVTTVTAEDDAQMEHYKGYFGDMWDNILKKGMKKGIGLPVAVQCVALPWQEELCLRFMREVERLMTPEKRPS
As to the kind of experiment: In vivo protocol: FAAH activity in tissue homogenates after oral dosing of mice. Conditions: for Peripheral Selectivity: FAAH activity in liver divided by FAAH activity in brain, lower = more peripherally selective; for activity at 3 mg/kg / activity at 0.1 mg/kg / activity at 1 mg/kg / activity at 10 mg/kg: mouse. As to the method: In vivo testing was performed according to the protocol described below. BRh (brain homogenate) indicates inhibition in central nervous tissue, in this case, brain, and LVh (liver homogenate) indicates inhibition in peripheral tissue, in this case, liver. The controls were the reaction mix minus the test compounds. Therefore, a low value for the test compound indicates a strong inhibitor.
The animals used for experiments were male NMRI mice (weighing 27-44 g) obtained from Interfauna Ibérica (Spain). Mice were kept 5 per cage, under controlled environmental conditions (12 hr light/dark cycle and room temperature 221° C.). Food and tap water were allowed ad libitum and the experiments were all carried out during daylight hours.
[…] compounds via oral route (8 ml/kg; compound suspended in 0.5% carboxymethylcellulose (CMC) or solubilized in water) or vehicle (controls) using animal feeding stainless steel curve needles (Perfectum, U.S.A.). Fifteen minutes before sacrifice animal were anesthetized with pentobarbital 60 mg/kg administered intraperitoneally. A fragment of liver, left lung lobe and brain without cerebellum were removed and put in plastic vials containing membrane buffer (3 mM MgCl2, 1 mM EDTA, 50 mM Tris HCl pH 7.4). Tissues were stored at −30° C. until analysis.
Animals were always fasted overnight before administration of compounds except for time points of >18 h, where food was removed on the morning of day of administration and the compound was administered in the afternoon of the same day. Animals were then given water but nothing else.
Tissues were thawed on ice and were homogenized in 10 volumes of membrane buffer (3 mM MgCl2, 1 mM EDTA, 50 mM Tris HCl pH 7.4) with either Potter-Elvejhem (brains—8 strokes at 500 rpm) or Heidolph Diax (livers—2 strokes at position 5 for 20 sec with 30 sec pauses).
Total protein in tissues was determined with the BioRad Protein Assay (BioRad) using a standard curve of BSA (50-250 μg/ml).
Reaction mix (total volume of 200 μl) contained: 2 μM AEA (2 μM AEA+5 nM ^3H-AEA), 0.1% fatty acid free BSA, 15 μg (brain), 5 μg (liver) or 50 μg (lung) protein, in 1 mM EDTA, 10 mM Tris pH 7.6. After a 15 min pre-incubation period at 37° C. reaction was started by the addition of the substrate solution (cold AEA+radiolabelled AEA+BSA). Reaction was carried out for 10 min (brain and lung) or 7 min (liver) before termination by the addition of 400 μl activated charcoal suspension (8 g charcoal in 32 ml 0.5 M HCl in continuous agitation). After a 30 min incubation period at room temperature with agitation, charcoal was sedimented by centrifugation in microfuge (10 min at 13000 rpm). 200 μl of the supernatant were added to 800 μl Optiphase Supermix scintillation cocktail previously distributed in 24-well plates. Counts per minute (cpm) were determined in a MicrobetaTriLux scintillation counter.
In each assay blanks (without protein) were prepared.
The percentage of remaining enzymatic activity was calculated with respect to controls and after blank subtraction.

For series [2], the target named is T1, FAAH. In words: ED50 determination of FAAH inhibition in liver after p.o. administration. It is filed as in vivo. Conditions: po, read-out: Liver ED50 (95CI). The source says:
Confidence intervals (95%) are included.

The nature of series [3]: CYPs metabolic stability assay in HLM. Conditions: 1 h, 5 μM; for Metabolic Stability (% of Remaining) Human CYP+: with NADPH; for Metabolic Stability (% of Remaining) Human CYP−: without NADPH. It is filed as in vitro ADME, human. As to the method:
(§1) Stability of the test compounds was performed in MLM (mouse liver microsomes) or HLM (human liver microsomes) in the presence and in the absence of NADPH.
(§2) The stability was measured using the incubation mixture (100 μl total volume) contained 1 mg/ml total protein, MgCl2 5 mM and 50 mM K-phosphate buffer. Samples were incubated in the presence and in the absence of NADPH 1 mM. Reactions were pre-incubated 5 min and the reaction initiated with the compound under test (5 μM for HLM and 50 μM for MLM). Samples were incubated for 60 min in a shaking water bath at 37° C. The reaction was stopped by adding 100 μl of acetonitrile. Samples were then centrifuged, filtered and supernatant injected in HLPC-MSD. Test compounds were dissolved in DMSO and the final concentration of DMSO in the reaction was below 0.5% (v/v). At TO acetonitrile was added before adding the compound. All experiments were performed with samples in duplicate.
(§3) The stability data are given as % of remaining compound after 1 h exposure to MLM or HLM. 100% means no metabolic reaction at all and 0% corresponds to full enzymatic degradation. “CYP−” refers to the absence of cofactor (NADPH) which is essential for CYP metabolic reactions. Therefore “CYP−” can be regarded as control value. “CYP+” refers to the presence of cofactor and the enzymatic degradation may take place according to the stability of the test compound.

The nature of series [4]: CYPs metabolic stability assay in MLM. It is filed as in vitro ADME, mouse. Conditions: 1 h, 50 μM; for Metabolic Stability (% of Remaining) Mouse CYP+: with NADPH; for Metabolic Stability (% of Remaining) Mouse CYP−: without NADPH. How it is done: as §1, §2, §3
In series [5] the target is T2, FAAH (Rattus norvegicus, UniProt P97612).
T2 construct: Frozen brains from 4 Wistar rats were homogenized; from tissue; host or cells: Wistar rat brain membranes
T2 sequence (P97612 1-579): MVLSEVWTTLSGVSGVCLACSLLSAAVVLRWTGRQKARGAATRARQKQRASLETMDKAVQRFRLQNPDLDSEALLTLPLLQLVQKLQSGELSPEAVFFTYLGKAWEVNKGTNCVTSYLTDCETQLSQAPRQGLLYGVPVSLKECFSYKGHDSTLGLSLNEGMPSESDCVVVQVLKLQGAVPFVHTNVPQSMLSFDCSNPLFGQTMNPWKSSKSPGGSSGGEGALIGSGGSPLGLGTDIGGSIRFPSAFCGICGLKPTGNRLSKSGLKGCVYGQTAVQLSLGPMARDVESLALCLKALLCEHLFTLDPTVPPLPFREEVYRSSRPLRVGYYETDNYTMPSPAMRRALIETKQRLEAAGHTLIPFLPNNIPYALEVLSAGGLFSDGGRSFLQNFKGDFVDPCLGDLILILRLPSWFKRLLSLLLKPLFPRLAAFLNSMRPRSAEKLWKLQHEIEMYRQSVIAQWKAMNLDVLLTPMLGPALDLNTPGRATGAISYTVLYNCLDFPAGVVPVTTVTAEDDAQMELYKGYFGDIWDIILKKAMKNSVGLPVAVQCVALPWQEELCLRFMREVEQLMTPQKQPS
As to the kind of experiment: Determination of IC50 in rat brain membrane FAAH enzymatic assay (3H-AEA). It is filed as biochemical. Conditions: rat brain membranes, 2 μM AEA, 15 min preincubation. How it is done:
Anandamide[ethanolamine-1-^3H-] was obtained from American Radiochemicals—with a specific activity of 60 Ci/mmol. All other reagents were obtained from Sigma-Aldrich. Optiphase Supermix was obtained from Perkin Elmer and activated charcoal was obtained from Sigma.
Frozen brains from 4 Wistar rats were homogenized in 20 ml 1 mM MgCl2, 20 mM HEPES (4-(2-hydroxyethyl)-1-piperazineethanesulfonic acid) pH 7.0 with Potter-Elvejhem (8 strokes at 500 rpm). Homogenates were centrifuged for 20 min at 36000 g at 4° C. (Beckman, 70Ti rotor). Pellets were resuspended in 15 ml of the same buffer and centrifuged under the same conditions. Pellets were resuspended in 15 ml of the same buffer and incubated for 15 min at 37° C. after which they were centrifuged for 20 min at 36000 g at 4° C. Each pellet was then resuspended in 10 ml 3 mM MgCl2, 1 mM EDTA (Ethylenediaminetetraacetic acid), 50 mM Tris (2-Amino-2-hydroxymethyl-propane-1,3-diol) pH 7.4 and protein determined with the BioRad Protein Assay (BioRad) using a standard curve of BSA (Bovine Serum Albumin) (50-250 μg/ml).
Reaction mix (total volume of 200 μl) contained: 2 μM AEA (2 μM AEA+5 nM ^3H-AEA), 0.1% fatty acid free BSA, 5 or 10 μg protein, in 1 mM EDTA, 10 mM Tris pH 7.6 and compound 1 at various concentrations. […] Counts per minute (CPM) or disintegrations per minute (DPM) were determined in a MicrobetaTriLux scintillation counter. […]

Where [6] appears, read: po, brain homogenate, 3 mg/kg po, 8 h, % remaining activity vs control, read-out: FAAH Activity (%) Br. h. 3 mg/kg. 8 h. po.
Where [7] appears, read: po, liver homogenate, 3 mg/kg po, 8 h, % remaining activity vs control, read-out: FAAH Activity (%) Lv. h. 3 mg/kg. 8 h. po.
[8] abbreviates: 1 h, 3 mg/kg, read-out: FAAH Activity (%) mouse Liver.
Where [9] appears, read: 8 h, 0.1 mg/kg, read-out: FAAH Activity (%) mouse Liver.
[10] abbreviates: 8 h, read-out: FAAH Activity (%) mouse Liver.
The mark [11] stands for this setting: 8 h, 3 mg/kg, read-out: FAAH Activity (%) mouse Liver.

The structures appear in SMILES notation. Where two headings read alike, the source gives them in different places. Bounds are passed on as bounds.

On to `CN(C(=O)n1cnc(-c2cccc(NC(=N)N)c2)c1)C1CCCCC1` [Comparator Compound 1, N-cyclohexyl-4-(3-guanidinophenyl)-N-methyl-1H-imidazole-1-carboxamide], for which the “Peripheral Selectivity” value on FAAH [1] (3 mg/kg po, 8 h) was determined as 0.235. Also, the activity at 3 mg/kg at FAAH [1] (setting [6]) turned out to be 86.2%; at FAAH [1] (setting [7]), 20.3%.
Regarding `CN(C(=O)n1cnc(-c2ccc(F)c(O)c2)c1)C1CCCC1` [Comparator Compound 2, N-cyclopentyl-4-(4-fluoro-3-hydroxyphenyl)-N-methyl-1H-imidazole-1-carboxamide], on FAAH [2] (Time 8 h), the ED50 – broadly, the dose at which the effect has come halfway, by size or by number of responders – was determined as 0.17 mg/kg. In series [3], the “Metabolic Stability (% of Remaining) Human CYP+” value turned out to be 70% and the “Metabolic Stability (% of Remaining) Human CYP−” value amounted to 92%. Besides, at FAAH [1] (3 mg/kg po, 8 h), the “Peripheral Selectivity” value turned out to be 0.017. For the same molecule, at FAAH [1] (setting [8]), the activity at 3 mg/kg worked out at 17%. Also, the activity at 0.1 mg/kg on FAAH [1] (setting [9]) is 73.8%. Further, at FAAH [1] (setting [10]), the activity at 1 mg/kg stood at 4.9% and the activity at 10 mg/kg came to 1.2%. In addition, the activity at 3 mg/kg at FAAH [1] (setting [11]) turned out to be 2.1%. Besides, the activity at 3 mg/kg on FAAH [1] (setting [6]) was 121%. At FAAH [1] (setting [7]), the activity at 3 mg/kg worked out at 2.1%. For the same molecule, in series [4], the “Metabolic Stability (% of Remaining) Mouse CYP+” value came to 53% and the “Metabolic Stability (% of Remaining) Mouse CYP−” value came out at 92%.
Turning to `CN(C(=O)n1cnc(-c2cccc(NC(N)=O)c2)c1)C1CCCC1` [Compound 1, N-Cyclopentyl-N-methyl-4-(3-ureidophenyl)-1H-imidazole-1-carboxamide], at FAAH [2], the ED50 amounted to 0.03 mg/kg. Also, in series [3], the “Metabolic Stability (% of Remaining) Human CYP+” value was determined as 82% and the “Metabolic Stability (% of Remaining) Human CYP−” value turned out to be 99%. Besides, on FAAH [1] (3 mg/kg po, 8 h), the “Peripheral Selectivity” value stood at 0.008. In addition, the “factor by which most peripherally selective compound” value at FAAH [1] (compared with comparator compounds, 3 mg/kg po, 8 h) is above 2. Besides, the “fold more potent than comparator compound 2” value on FAAH [1] (mouse liver, 0.1 mg/kg, 8 h post-dose) is on record as “more than 10 fold”. The activity at 3 mg/kg on FAAH [1] (setting [8]) worked out at 1.9%. For the same molecule, the activity at 0.1 mg/kg at FAAH [1] (setting [9]) was 6.4%. At FAAH [1] (setting [10]), the activity at 1 mg/kg turned out to be 1.6% and the activity at 10 mg/kg turned out to be 0.4%. Also, the activity at 3 mg/kg on FAAH [1] (setting [11]) was 0.7%. The activity at 3 mg/kg on FAAH [1] (setting [6]) is 85.1%. Moreover, the activity at 3 mg/kg on FAAH [1] (setting [7]) came out at 0.7%. Moreover, it took 27 nM to reach half-maximal inhibition at FAAH [5] (IC50). Also, in series [4], the “Metabolic Stability (% of Remaining) Mouse CYP+” value is reported as 96% and the “Metabolic Stability (% of Remaining) Mouse CYP−” value stood at 95%.
